In the supplement of paper PMC4862054:

Legend:
Test in all cases: normalised viability (% of control), CellTiter-Blue; higher = more viable cells (about 100 = DMSO control)
[1] = tested on: HCC1143; conditions: incubation time: 72 h
In short: (§1)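 384-well plates were pre-loaded with compound in 5 µl medium before 20 µl of breast cancer cell suspension was seeded. Following 72 h incubation, 2.5 µl CellTiter-Blue reagent was added for 2 h at 37 °C. Fluorescence was read at 560/590 nm and plates were normalised to vehicle (100) and a positive kill control (0), checked by Z'-factor. Normalised viability is reported at a single listed concentration of the series.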

[2] = tested on: MDA-MB-453; conditions: incubation time: 72 h
In short: as §1

[3] = tested on: SK-BR-3; conditions: incubation time: 72 h
In short: as §1

[4] = tested on: BT-474; conditions: incubation time: 72 h
In short: as §1

[5] = tested on: DU-4475; conditions: incubation time: 72 h
In short: as §1

[6] = tested on: MDA-MB-468; conditions: incubation time: 72 h
In short: as §1

[7] = tested on: CAL-148; conditions: incubation time: 72 h
In short: as §1

[8] = tested on: CAL-51; conditions: incubation time: 72 h
In short: as §1

[9] = tested on: MFM-223; conditions: incubation time: 72 h
In short: as §1

[10] = tested on: MDA-MB-231; conditions: incubation time: 72 h
In short: as §1

[11] = tested on: HCC1599; conditions: incubation time: 72 h
In short: as §1

[12] = tested on: HCC1937; conditions: incubation time: 72 h
In short: as §1

[13] = tested on: HCC1143; conditions: 100 nM; incubation time: 72 h
Protocol: (§2)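 DSRT, CellTiter-Blue viability, 72 h incubation. Signal is normalised to DMSO and benzethonium chloride controls. Value is the normalised response at dose 3.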

[14] = tested on: MDA-MB-436; conditions: 100 nM; incubation time: 72 h
Protocol: as §2

[15] = tested on: Hs578T; conditions: 100 nM; incubation time: 72 h
Protocol: as §2

[16] = tested on: MDA-MB-453; conditions: 10 nM; incubation time: 72 h
Protocol: as §2

[17] = tested on: SK-BR-3; conditions: 100 nM; incubation time: 72 h
Protocol: as §2

[18] = tested on: HDQ-P1; conditions: 10 nM; incubation time: 72 h
Protocol: as §2

[19] = tested on: BT-474; conditions: 100 nM; incubation time: 72 h
Protocol: as §2

[20] = tested on: DU-4475; conditions: 10 nM; incubation time: 72 h
Protocol: as §2

[21] = tested on: CAL-85-1; conditions: 10 nM; incubation time: 72 h
Protocol: as §2

[22] = tested on: MDA-MB-468; conditions: 100 nM; incubation time: 72 h
Protocol: as §2

[23] = tested on: CAL-148; conditions: 10 nM; incubation time: 72 h
Protocol: as §2

[24] = tested on: BT-549; conditions: 100 nM; incubation time: 72 h
Protocol: as §2

[25] = tested on: CAL-51; conditions: 10 nM; incubation time: 72 h
Protocol: as §2

[26] = tested on: CAL-120; conditions: 100 nM; incubation time: 72 h
Protocol: as §2

[27] = tested on: MFM-223; conditions: 100 nM; incubation time: 72 h
Protocol: as §2

[28] = tested on: MDA-MB-231; conditions: 100 nM; incubation time: 72 h
Protocol: as §2

[29] = tested on: HCC1599; conditions: 100 nM; incubation time: 72 h
Protocol: as §2

[30] = tested on: HCC1937; conditions: 100 nM; incubation time: 72 h
Protocol: as §2

## CC(C)C[C@H](NC(=O)[C@@H](COC(C)(C)C)NC(=O)[C@H](Cc1ccc(O)cc1)NC(=O)[C@H](CO)NC(=O)[C@H](Cc1c[nH]c2ccccc12)NC(=O)[C@H](Cc1cnc[nH]1)NC(=O)[C@@H]1CCC(=O)N1)C(=O)N[C@@H](CCCNC(=N)N)C(=O)N1CCC[C@H]1C(=O)NNC(N)=O [Goserelin]
[1]; 10 nM
  normalised viability: 82.8%
[1]; 1000 nM
  normalised viability: 95%
[1]; 10000 nM
  normalised viability: 89%
[2]; 3 nM
  normalised viability: 115%
[2]; 30 nM
  normalised viability: 101%
[2]; 100 nM
  normalised viability: 102%
[3]; 10 nM
  normalised viability: 98.8%
[3]; 1000 nM
  normalised viability: 106%
[3]; 10000 nM
  normalised viability: 94.7%
[4]; 10 nM
  normalised viability: 115%
[4]; 1000 nM
  normalised viability: 111%
[4]; 10000 nM
  normalised viability: 131%
[5]; 3 nM
  normalised viability: 91.4%
[5]; 30 nM
  normalised viability: 84%
[5]; 100 nM
  normalised viability: 111%
[6]; 10 nM
  normalised viability: 96.5%
[6]; 1000 nM
  normalised viability: 94.5%
[6]; 10000 nM
  normalised viability: 108%
[7]; 3 nM
  normalised viability: 92%
[7]; 30 nM
  normalised viability: 97%
[7]; 100 nM
  normalised viability: 98.9%
[8]; 3 nM
  normalised viability: 107%
[8]; 30 nM
  normalised viability: 104%
[8]; 100 nM
  normalised viability: 105%
[9]; 10 nM
  normalised viability: 92.1%
[9]; 1000 nM
  normalised viability: 87.8%
[9]; 10000 nM
  normalised viability: 100%
[10]; 10 nM
  normalised viability: 102%
[10]; 1000 nM
  normalised viability: 110%
[10]; 10000 nM
  normalised viability: 114%
[11]; 10 nM
  normalised viability: 107%
[11]; 1000 nM
  normalised viability: 83.8%
[11]; 10000 nM
  normalised viability: 90.2%
[12]; 10 nM
  normalised viability: 104%
[12]; 1000 nM
  normalised viability: 85.1%
[12]; 10000 nM
  normalised viability: 97.4%
[13]
  normalised viability: 87.3%
[14]
  normalised viability: 102%
[15]
  normalised viability: 113%
[16]
  normalised viability: 102%
[17]
  normalised viability: 110%
[18]
  normalised viability: 117%
[19]
  normalised viability: 115%
[20]
  normalised viability: 96.2%
[21]
  normalised viability: 102%
[22]
  normalised viability: 101%
[23]
  normalised viability: 101%
[24]
  normalised viability: 102%
[25]
  normalised viability: 113%
[26]
  normalised viability: 107%
[27]
  normalised viability: 91.3%
[28]
  normalised viability: 91.8%
[29]
  normalised viability: 94.4%
[30]
  normalised viability: 104%

## COc1ccc(S(=O)(=O)Nc2cccnc2Nc2ccc(O)cc2)cc1 [ABT-751]
[1]; 10 nM
  normalised viability: 83.8%
[1]; 1000 nM
  normalised viability: 56.1%
[1]; 10000 nM
  normalised viability: 29.1%
[2]; 3 nM
  normalised viability: 105%
[2]; 30 nM
  normalised viability: 81.8%
[2]; 100 nM
  normalised viability: 67.9%
[3]; 10 nM
  normalised viability: 93.3%
[3]; 1000 nM
  normalised viability: 16.9%
[3]; 10000 nM
  normalised viability: 15.6%
[4]; 10 nM
  normalised viability: 112%
[4]; 1000 nM
  normalised viability: 60.7%
[4]; 10000 nM
  normalised viability: 54%
[5]; 3 nM
  normalised viability: 88.8%
[5]; 30 nM
  normalised viability: 95.2%
[5]; 100 nM
  normalised viability: 89.9%
[6]; 10 nM
  normalised viability: 105%
[6]; 1000 nM
  normalised viability: 55.9%
[6]; 10000 nM
  normalised viability: 34.7%
[7]; 3 nM
  normalised viability: 91.9%
[7]; 30 nM
  normalised viability: 89.2%
[7]; 100 nM
  normalised viability: 86.7%
[8]; 3 nM
  normalised viability: 114%
[8]; 30 nM
  normalised viability: 107%
[8]; 100 nM
  normalised viability: 107%
[9]; 10 nM
  normalised viability: 94.7%
[9]; 1000 nM
  normalised viability: 62.6%
[9]; 10000 nM
  normalised viability: 25.4%
[10]; 10 nM
  normalised viability: 89.3%
[10]; 1000 nM
  normalised viability: 28.8%
[10]; 10000 nM
  normalised viability: 14.7%
[11]; 10 nM
  normalised viability: 112%
[11]; 1000 nM
  normalised viability: 85.6%
[11]; 10000 nM
  normalised viability: 40.4%
[12]; 10 nM
  normalised viability: 86.8%
[12]; 1000 nM
  normalised viability: 24.7%
[12]; 10000 nM
  normalised viability: 14%
[13]
  normalised viability: 87.2%
[14]
  normalised viability: 108%
[15]
  normalised viability: 88.1%
[16]
  normalised viability: 87%
[17]
  normalised viability: 71.6%
[18]
  normalised viability: 106%
[19]
  normalised viability: 112%
[20]
  normalised viability: 109%
[21]
  normalised viability: 88.8%
[22]
  normalised viability: 101%
[23]
  normalised viability: 90.4%
[24]
  normalised viability: 89%
[25]
  normalised viability: 113%
[26]
  normalised viability: 93%
[27]
  normalised viability: 91%
[28]
  normalised viability: 91.4%
[29]
  normalised viability: 102%
[30]
  normalised viability: 92.4%
